Entries after “also recorded” stand apart in the source; their conditions may differ.
Tests used:
yPFTase [1] = assay: yPFTase-catalyzed prenylation, product analysis by HPLC; format: biochemical, Saccharomyces cerevisiae; settings: FPP source pure FPP or photolysis product of 5 or 9
rPFTase = rPFTase (Rattus norvegicus, UniProt Q02293+Q04631); assay: X-ray crystallography of rPFTase:FPP:15 complex; format: binding; settings: FPP bound in presence of 15 vs PDB 1KZO
Photolysis = format: physicochemical; settings: 300-400 nm light (λmax 350 nm)
yPFTase [2] = assay: yPFTase substrate studies, continuous fluorescence assay; format: biochemical, Saccharomyces cerevisiae
[3] = λirrad 350 nm; ref [16]; cited from earlier work
PFTase = settings: literature comparison value; ref [46]; cited from earlier work

Chain of rPFTase (Q02293 whole entry, one chain of several): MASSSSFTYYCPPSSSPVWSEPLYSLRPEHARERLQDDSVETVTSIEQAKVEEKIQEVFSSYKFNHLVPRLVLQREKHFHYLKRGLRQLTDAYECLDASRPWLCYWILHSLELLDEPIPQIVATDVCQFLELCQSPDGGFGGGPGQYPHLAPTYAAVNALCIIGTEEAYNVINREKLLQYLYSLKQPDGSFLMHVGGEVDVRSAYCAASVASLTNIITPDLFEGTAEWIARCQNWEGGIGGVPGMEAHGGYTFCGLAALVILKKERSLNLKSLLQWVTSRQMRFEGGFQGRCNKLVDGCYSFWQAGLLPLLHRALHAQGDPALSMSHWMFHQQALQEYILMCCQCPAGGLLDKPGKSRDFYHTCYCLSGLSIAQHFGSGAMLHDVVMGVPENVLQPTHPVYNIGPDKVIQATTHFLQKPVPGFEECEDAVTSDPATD

| Compound | prenylated product formed (yPFTase [1]) | Qu1 (single-photon uncaging efficiency) (Photolysis; 25 mM NH4HCO3) | photolysis product (Photolysis; RP-HPLC) | substrate behaviour (yPFTase [2]; prior to uncaging) | also measured |
| --- | --- | --- | --- | --- | --- |
| CC(C)=CCC/C(C)=C/CC/C(C)=C/CO[P@@](=O)(O)OP(=O)(O)O (stereo in doubt) [FPP, farnesyl diphosphate, reference compound] | same prenylated product | – | – | – | rms deviation over all FPP atoms (rPFTase): 0.546 Å |
| CC(C)=CCC/C(C)=C/CC/C(C)=C/COP(=O)(O)OP(=O)(O)OCc1ccccc1[N+](=O)[O-] [Compound 5, β-(2-nitrobenzyl)farnesyl diphosphate] | same prenylated product | 0.70 | release of farnesyl diphosphate; also recorded: efficiently release FPP upon irradiation | better substrate than compound 9; also recorded: poor substrates for PFTase | interference of photolysis byproducts with catalysis (yPFTase [2]; after irradiation): do not interfere with catalysis in any way |
| COc1cc(C(C)OP(=O)(O)OP(=O)(O)OC/C=C(\C)CC/C=C(\C)CCC=C(C)C)c([N+](=O)[O-])cc1OC (stereo not drawn) [Compound 9, β-1-(4,5-dimethoxy-nitrophenyl)ethyl farnesyl diphosphate] | same prenylated product | 0.08 | release of farnesyl diphosphate; also recorded: efficiently release FPP upon irradiation | poorer substrate prior to uncaging; also recorded: poor substrates for PFTase | uncaging rate constant k (Photolysis; 25 mM NH4HCO3, RP-HPLC, first-order kinetics): 0.12 min⁻¹; rate of enzymatic prenylation relative to FPP (yPFTase [2]; prior to uncaging): 7.6% |
| COc1cc(C(C)OP(=O)(O)OP(=O)(O)OP(=O)(O)OC[C@H]2O[C@@H](n3cnc4c(N)ncnc43)[C@H](O)[C@@H]2O)c([N+](=O)[O-])cc1OC (stereo partly shown) [DMNPE-ATP] | – | – | – | – | Qu1 (quantum efficiency) [3]: 0.07 mol·ein^-1; Uncaging Rate [3]: 18.0 s⁻¹ |
| CVIM | – | – | – | – | IC50 (PFTase): 165 nM |
